From US12024506B2, “Compounds” (Oxford University Innovation Limited, priority 2018, dated 2024)
“Also recorded” adds a separate entry of the source.

How the values were obtained:
Type in all cases: cell-based
Conditions in all cases: HEK293T cells, 5, 10 and 20 μM, 20 h
[1] = target: T1, KRASG12D interaction with PI3Kα, PI3Kγ, CRAF RBD, RALGDS RA (Homo sapiens, UniProt P01116, G12D); assay: BRET2 cell assay, KRAS G12D-effector interaction
T1 construct: expressed in transfected cells; host or cells: HEK293T
Text: (§1) The BRET ratio corresponds to the light emitted by the GFP2 acceptor constructs (515 nm±30) upon addition of Coelenterazine 400a divided by the light emitted by the RLuc8 donor constructs (410 nm±80). The normalized BRET ratio is the BRET ratio normalized to the DMSO negative and calculated as follows: (BRETcompound/BRETDMSO)×100, where BRETcompound corresponds to the BRET ratio for the compound-treated cells, BRETDMSO to the DMSO-treated cells. Each experiment was repeated at least three times. Statistical analyses were performed using a one-way ANOVA followed by Dunnett's post-tests (*P<0.05, **P<0.01, ***P<0.001, ****P<0.0001). Where error bars are presented, they correspond to mean values±SD of biological repeats (a-c).
(§2) 650,000 HEK293T were seeded in each well of a 6 well plate. 24 hours later, cells were transfected with an appropriated BRET-based RAS biosensor (i.e. RAS-effector) using Lipofectamine 2000 transfection reagent (Thermo-Fisher). […] The final concentrations in the cells were 0, 5, 10 and 20 µM (therefore the intermediate 10× concentrations were 0, 50, 100 and 200 μM. 10 μL of 10× compounds were added in each well of the 96 well plate to 0, 5, 10 and 20 µM final concentrations (with final 0.2% DMSO each). Quadruplicates were performed for each point. Cells were left for an additional 20 hours at 37° C. before the BRET2 signal reading directly after addition of Coelenterazine 400a substrate (10 µM final) to cells (Cayman Chemicals, cat #16157). BRET2 reading was carried out on an Envision instrument (2103 Multilabel Reader, PerkinElmer) with the BRET2 Dual Emission optical module (515 nm±30 and 410 nm±80; PerkinElmer).
(§3) The ability of Example compound 56 to inhibit RAS-effector PPI using the above cell-based RAS-effector BRET2 assay was investigated. […] We determined the effect of compound 56 (labelled Abd-7) on the interaction of KRAS^G12D and with PI3Kα and PI3Kγ, CRAF RAS-binding domain (RBD) and RALGDS RAS-associating domain (RA) compared with the low affinity Reference Compound Abd-2 FIG. 1a). […]

[2] = target: T2, NRASQ61H interaction with PI3K, CRAF, RALGDS (Homo sapiens, UniProt P01111, Q61H); assay: BRET2 cell assay, NRAS Q61H-effector interaction
T2 construct: expressed in transfected cells; host or cells: HEK293T
Text: as §1
(§4) HEK293T cells were transfected 24 hr with plasmids expressing the NRAS Q61H […] and HRAS G12V (B, D) biosensors together with the indicated RBDs of PI3K, CRAF and RALGDS (A, B) or full-length CRAF. […]
as §2, with “plate.” for “plate. 24 hours later, cells were transfected with an appropriated BRET-based RAS biosensor (i.e. RAS-effector) using Lipofectamine 2000 transfection reagent (Thermo-Fisher).”
as §3

[3] = target: T3, HRASG12V interaction with PI3K, CRAF, RALGDS (Homo sapiens, UniProt P01112, G12V); assay: BRET2 cell assay, HRAS G12V-effector interaction
T3 construct: expressed in transfected cells; host or cells: HEK293T
Text: as §1, §4
as §2, with “plate.” for “plate. 24 hours later, cells were transfected with an appropriated BRET-based RAS biosensor (i.e. RAS-effector) using Lipofectamine 2000 transfection reagent (Thermo-Fisher).”
as §3

O=C(NCC1COc2ccccc2O1)c1ccco1 (stereo not drawn) [Abd-2, reference compound]
Effect on BRET signal, KRAS G12D/effector interactions [1]: no effect on the BRET signal; also recorded: not with the Abd-2
Effect on BRET signal, NRAS Q61H/effector interactions [2]: does not interfere with the BRET signal
Effect on BRET signal, HRAS G12V/effector interactions [3]: does not interfere with the BRET signal
